From PubChem BioAssay (NCI)
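Growth conditions: 96-well plates. Treatment: test compound, 48 hours, 5 concentrations. Analysis: linear interpolation between bracketing concentrations; unreached endpoints set to highest concentration. GI50 = concentration required for 50% inhibition of growth. Definition used: TGI = concentration required for complete inhibition of growth.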

What was measured:
Experiment in all cases: DTP human tumour cell line panel, 48 h
KM12 colon = system: KM12 colon
SF-268 CNS = system: SF-268 CNS
OVCAR-4 ovarian = system: OVCAR-4 ovarian
CAKI-1 renal = system: CAKI-1 renal
UO-31 renal = system: UO-31 renal
SN12C renal = system: SN12C renal
UACC-257 melanoma = system: UACC-257 melanoma
SK-OV-3 ovarian = system: SK-OV-3 ovarian
HOP-62 NSCLC = system: HOP-62 NSCLC
DU-145 prostate = system: DU-145 prostate
HCC-2998 colon = system: HCC-2998 colon
ACHN renal = system: ACHN renal
OVCAR-5 ovarian = system: OVCAR-5 ovarian
LOX IMVI melanoma = system: LOX IMVI melanoma
NCI-H522 lung = system: NCI-H522 lung
HL-60(TB) leukemia = system: HL-60(TB) leukemia
T-47D breast = system: T-47D breast
IGROV1 ovarian = system: IGROV1 ovarian
SNB-19 CNS = system: SNB-19 CNS
SF-539 CNS = system: SF-539 CNS
786-0 renal = system: 786-0 renal
RXF 393 renal = system: RXF 393 renal
OVCAR-8 ovarian = system: OVCAR-8 ovarian
MDA-MB-435 = system: MDA-MB-435
SK-MEL-5 melanoma = system: SK-MEL-5 melanoma
HS 578T breast = system: HS 578T breast
CCRF-CEM leukemia = system: CCRF-CEM leukemia
M14 melanoma = system: M14 melanoma

`C=C1C(=O)O[C@H]2[C@H]1CC/C(CNC(=O)c1cccc3ccccc13)=C\CC[C@@]1(C)O[C@@H]21` showed a TGI (KM12 colon) of 21 µM, a GI50 (SF-268 CNS) of 5.22 µM and a TGI (SF-268 CNS) of 20 µM. For the same molecule, the GI50 (OVCAR-4 ovarian) was 2.34 µM, the TGI (OVCAR-4 ovarian) was 8 µM and the GI50 (CAKI-1 renal) was 1.19 µM. It also gave a TGI (CAKI-1 renal) of 4.74 µM, a GI50 (UO-31 renal) of 1.44 µM and a TGI (UO-31 renal) of 2.94 µM. It also gave a GI50 (SN12C renal) of 1.96 µM, a TGI (SN12C renal) of 5.91 µM and a GI50 (UACC-257 melanoma) of 1.59 µM. It also gave a TGI (UACC-257 melanoma) of 3.61 µM, a GI50 (SK-OV-3 ovarian) of 17.1 µM and a TGI (SK-OV-3 ovarian) of 33.1 µM. It also gave a GI50 (HOP-62 NSCLC) of 14.1 µM, a TGI (HOP-62 NSCLC) of 30.7 µM and a GI50 (DU-145 prostate) of 1.02 µM. The TGI (DU-145 prostate) was 2.47 µM, the GI50 (HCC-2998 colon) was 2.43 µM and the TGI (HCC-2998 colon) was 5.2 µM. For the same molecule, the GI50 (ACHN renal) was 1.52 µM, the TGI (ACHN renal) was 6.3 µM and the GI50 (OVCAR-5 ovarian) was 3.6 µM. The TGI (OVCAR-5 ovarian) was 14 µM, the GI50 (LOX IMVI melanoma) was 1.53 µM and the TGI (LOX IMVI melanoma) was 3.19 µM. For the same molecule, the GI50 (NCI-H522 lung) was 1.36 µM, the TGI (NCI-H522 lung) was 2.95 µM and the GI50 (HL-60(TB) leukemia) was 1.34 µM. For the same molecule, the TGI (HL-60(TB) leukemia) was 4.38 µM, the GI50 (T-47D breast) was 2.55 µM and the TGI (T-47D breast) was 9.08 µM. The GI50 (IGROV1 ovarian) was 1.33 µM, the TGI (IGROV1 ovarian) was 3.86 µM and the GI50 (SNB-19 CNS) was 5.96 µM. The TGI (SNB-19 CNS) was 20 µM, the GI50 (SF-539 CNS) was 1.85 µM and the TGI (SF-539 CNS) was 5.11 µM. It also gave a GI50 (786-0 renal) of 1.64 µM, a TGI (786-0 renal) of 3.41 µM and a GI50 (RXF 393 renal) of 1.18 µM. It also gave a TGI (RXF 393 renal) of 2.6 µM, a GI50 (OVCAR-8 ovarian) of 3.29 µM and a TGI (OVCAR-8 ovarian) of 12 µM. For the same molecule, the GI50 (MDA-MB-435) was 1.99 µM, the TGI (MDA-MB-435) was 6.56 µM and the GI50 (SK-MEL-5 melanoma) was 3 µM. For the same molecule, the TGI (SK-MEL-5 melanoma) was 11.5 µM, the GI50 (HS 578T breast) was 6.22 µM and the TGI (HS 578T breast) was 44.4 µM. The GI50 (CCRF-CEM leukemia) was 0.424 µM, the TGI (CCRF-CEM leukemia) was 6.03 µM and the GI50 (M14 melanoma) was 1.57 µM. The TGI (M14 melanoma) was 3.76 µM.
